{"source": "patent US9156831B2", "about": "“Chemical compounds” (ASTRAZENECA AB, priority 2013, dated 2015)", "assay_in_all_cases": "Cell proliferation assay (MTS)", "format_in_all_cases": "cell-based, human", "key": {"SNU601": {"tested_on": "SNU601", "procedure": "(§1) The sensitivity of a panel of human cancer cell lines to the effects of compounds was determined in a standard proliferation assay. Cell lines were sourced through the AstraZeneca Cell Bank.\n(§2) Cells were plated in 96 well plates at densities of 1000-6000 cells per well in RPMI media containing 10% FBS. After incubation at 37° C. for 16 hours, various concentrations of compound were added to the assay plates. After incubation for an additional 72 h, the viable cells were determined by the addition of MTS reagent (Promega #3582) to each well for 2 h. MTS is a tetrazolium salt that is bioreduced by metabolically active cells in the presence of an electron coupling reagent to formazan. The formazan product was then quantitated by absorbance at 490 nm, as an indicator of the relative number of live cells. In order to determine the GI50 (concentration at which growth of cells was inhibited by 50%) the relative number of cells present at the time of drug addition was determined by comparison with the MTS readout before the drug was added, and this value was subtracted from the 72 hr value of untreated cells as a measure of cell growth during the assay."}, "H1703": {"tested_on": "H1703", "procedure": "as §1, §2"}, "[…]": {"tested_on": "[…]", "procedure": "(§3) The sensitivity of a panel of human cancer cell lines to the effects of compounds was determined in a standard proliferation assay.\nas §2"}, "2313287": {"tested_on": "2313287", "procedure": "as §1\n(§4) Cells were plated in 96 well plates at densities of 1000-6000 cells per well in RPMI media containing 10% FBS. After incubation at 37° C. for 16 hours, various concentrations of compound were added to the assay plates. After incubation for an additional 72 h, the viable cells were determined by the addition of MTS reagent (Promega #3582) to each well for 2 h. […] The formazan product was then quantitated by absorbance at 490 nm, as an indicator of the relative number of live cells. In order to determine the GI50 (concentration at which growth of cells was inhibited by 50%) the relative number of cells present at the time of drug addition was determined by comparison with the MTS readout before the drug was added, and this value was subtracted from the 72 hr value of untreated cells as a measure of cell growth during the assay."}, "HGC27": {"tested_on": "HGC27", "procedure": "as §3, §2"}, "PANC89": {"tested_on": "PANC89", "procedure": "as §3, §2"}, "ASPC1": {"tested_on": "ASPC1", "procedure": "as §3, §2"}, "H2085": {"tested_on": "H2085", "procedure": "as §3, §2"}, "OCUM1": {"tested_on": "OCUM1", "procedure": "as §1, §2"}, "BT20": {"tested_on": "BT20", "procedure": "as §1, §2"}, "HCT8": {"tested_on": "HCT8", "procedure": "as §1, §2"}, "SNU620": {"tested_on": "SNU620", "procedure": "as §1, §2"}, "DMS114": {"tested_on": "DMS114", "procedure": "as §1, §2"}, "PC3": {"tested_on": "PC3", "procedure": "as §3, §2"}, "MOLM16": {"tested_on": "MOLM16", "procedure": "as §3, §2"}, "QGP1": {"tested_on": "QGP1", "procedure": "as §3, §4"}, "HS746T": {"tested_on": "HS746T", "procedure": "as §3, §2"}, "H1869": {"tested_on": "H1869", "procedure": "as §3, §2"}, "UMUC3": {"tested_on": "UMUC3", "procedure": "as §3, §2"}, "PANC0403": {"tested_on": "PANC0403", "procedure": "as §3, §2"}, "U937": {"tested_on": "U937", "procedure": "as §3, §2"}, "JURKAT": {"tested_on": "JURKAT", "procedure": "as §3, §4"}, "5637": {"tested_on": "5637", "procedure": "as §3, §2"}, "OE33": {"tested_on": "OE33", "procedure": "as §3, §4"}, "LS180": {"tested_on": "LS180", "procedure": "as §3, §4"}, "A549": {"tested_on": "A549", "procedure": "as §3, §2"}, "H23": {"tested_on": "H23", "procedure": "as §1, §2"}, "SW620": {"tested_on": "SW620", "procedure": "as §3, §4"}, "CAPAN2": {"tested_on": "CAPAN2", "procedure": "as §3, §4"}, "MCF7MDR+": {"tested_on": "MCF7MDR+", "procedure": "as §1, §2"}, "HCC1806": {"tested_on": "HCC1806", "procedure": "as §3, §2"}, "SNU16": {"tested_on": "SNU16", "procedure": "as §3, §2"}, "BT549": {"tested_on": "BT549", "procedure": "as §3, §4"}, "WSUDLCL2": {"tested_on": "WSUDLCL2", "procedure": "as §3, §4"}, "SKMES1": {"tested_on": "SKMES1", "procedure": "as §3, §2"}, "MIAPACA2": {"tested_on": "MIAPACA2", "procedure": "as §1, §2"}, "SNU739": {"tested_on": "SNU739", "procedure": "as §1, §2"}, "ARH77": {"tested_on": "ARH77", "procedure": "as §3, §2"}, "CAPAN1": {"tested_on": "CAPAN1", "procedure": "as §3, §2"}, "JVM3": {"tested_on": "JVM3", "procedure": "as §3, §2"}, "K562": {"tested_on": "K562", "procedure": "as §3, §2"}, "MDAMB436": {"tested_on": "MDAMB436", "procedure": "as §3, §2"}, "RAMOS": {"tested_on": "RAMOS", "procedure": "as §3, §2"}, "[1]": {"details": "Homo sapiens, Stomach, PIK3CA WT"}, "[2]": {"details": "Homo sapiens, Pancreas, PIK3CA WT"}, "[3]": {"details": "Homo sapiens, Blood/lymph, PIK3CA WT"}, "[4]": {"details": "Homo sapiens, Bladder, PIK3CA WT"}, "[5]": {"details": "Homo sapiens, Breast, PIK3CA WT"}}}
{"compound": "CCn1nc(C2CCN(C(=O)CCO)CC2)nc1-c1cnc(N)c(-c2nnc(C(C)(C)C)o2)n1", "note": "[Example 3, 1-(4-(5-(5-amino-6-(5-tert-butyl-1,3,4-oxadiazol-2-yl)pyrazin-2-yl)-1-ethyl-1H-1,2,4-triazol-3-yl)piperidin-1-yl)-3-hydroxypropan-1-one]", "values": [{"measurement": "Category", "setting": "SNU601", "result": "Sensitive (sensitive (GI50<=1.0 μM))"}, {"measurement": "GI50", "setting": "SNU601; Homo sapiens, SNU-601, Stomach, PIK3CA MUT", "result": 0.506, "unit": "µM"}, {"measurement": "Category", "setting": "H1703", "result": "Sensitive (sensitive (GI50<=1.0 μM))"}, {"measurement": "GI50", "setting": "H1703; Homo sapiens, NCI-H1703, Lung, PIK3CA WT", "result": 0.514, "unit": "µM"}, {"measurement": "GI50", "setting": "[…]; Homo sapiens", "result": 0.792, "unit": "µM"}, {"measurement": "Category", "setting": "[…]; […]", "result": "Sensitive (sensitive (GI50<=1.0 μM))"}, {"measurement": "Category", "setting": "2313287", "result": "Resistant (resistant (GI50>1.0 μM))"}, {"measurement": "GI50", "setting": "2313287; [1]", "result": 1.34, "unit": "µM"}, {"measurement": "Category", "setting": "HGC27", "result": "Resistant (resistant (GI50>1.0 μM))"}, {"measurement": "GI50", "setting": "HGC27; Homo sapiens, HGC-27, Stomach, PIK3CA MUT", "result": 1.5, "unit": "µM"}, {"measurement": "Category", "setting": "PANC89", "result": "Resistant (resistant (GI50>1.0 μM))"}, {"measurement": "GI50", "setting": "PANC89; [2]", "result": 1.62, "unit": "µM"}, {"measurement": "Category", "setting": "ASPC1", "result": "Resistant (resistant (GI50>1.0 μM))"}, {"measurement": "GI50", "setting": "ASPC1; [2]", "result": 1.74, "unit": "µM"}, {"measurement": "Category", "setting": "H2085", "result": "Resistant (resistant (GI50>1.0 μM))"}, {"measurement": "GI50", "setting": "H2085; Homo sapiens, Lung, PIK3CA WT", "result": 1.83, "unit": "µM"}, {"measurement": "Category", "setting": "OCUM1", "result": "Resistant (resistant (GI50>1.0 μM))"}, {"measurement": "GI50", "setting": "OCUM1; [1]", "result": 2.33, "unit": "µM"}, {"measurement": "Category", "setting": "BT20", "result": "Resistant (resistant (GI50>1.0 μM))"}, {"measurement": "GI50", "setting": "BT20; Homo sapiens, BT-20, Breast, PIK3CA MUT", "result": 2.36, "unit": "µM"}, {"measurement": "Category", "setting": "HCT8", "result": "Resistant (resistant (GI50>1.0 μM))"}, {"measurement": "GI50", "setting": "HCT8; Homo sapiens, HCT-8, Colon, PIK3CA MUT", "result": 2.51, "unit": "µM"}, {"measurement": "Category", "setting": "SNU620", "result": "Resistant (resistant (GI50>1.0 μM))"}, {"measurement": "GI50", "setting": "SNU620; [1]", "result": 3.14, "unit": "µM"}, {"measurement": "Category", "setting": "DMS114", "result": "Resistant (resistant (GI50>1.0 μM))"}, {"measurement": "GI50", "setting": "DMS114; Homo sapiens, DMS-114, Lung, PIK3CA WT", "result": 3.29, "unit": "µM"}, {"measurement": "Category", "setting": "PC3", "result": "Resistant (resistant (GI50>1.0 μM))"}, {"measurement": "GI50", "setting": "PC3; Homo sapiens, PC-3, Prostate, PIK3CA WT", "result": 3.83, "unit": "µM"}, {"measurement": "Category", "setting": "MOLM16", "result": "Resistant (resistant (GI50>1.0 μM))"}, {"measurement": "GI50", "setting": "MOLM16; [3]", "result": 4.6, "unit": "µM"}, {"measurement": "Category", "setting": "QGP1", "result": "Resistant (resistant (GI50>1.0 μM))"}, {"measurement": "GI50", "setting": "QGP1; Homo sapiens, QGP-1, Pancreas, PIK3CA WT", "result": 4.87, "unit": "µM"}, {"measurement": "Category", "setting": "HS746T", "result": "Resistant (resistant (GI50>1.0 μM))"}, {"measurement": "GI50", "setting": "HS746T; [1]", "result": 5.98, "unit": "µM"}, {"measurement": "Category", "setting": "H1869", "result": "Resistant (resistant (GI50>1.0 μM))"}, {"measurement": "GI50", "setting": "H1869; Homo sapiens, Lung, PIK3CA WT", "result": 6.04, "unit": "µM"}, {"measurement": "Category", "setting": "UMUC3", "result": "Resistant (resistant (GI50>1.0 μM))"}, {"measurement": "GI50", "setting": "UMUC3; [4]", "result": 6.22, "unit": "µM"}, {"measurement": "Category", "setting": "PANC0403", "result": "Resistant (resistant (GI50>1.0 μM))"}, {"measurement": "GI50", "setting": "PANC0403; Homo sapiens, Panc 04.03, Pancreas, PIK3CA WT", "result": 6.47, "unit": "µM"}, {"measurement": "Category", "setting": "U937", "result": "Resistant (resistant (GI50>1.0 μM))"}, {"measurement": "GI50", "setting": "U937; Homo sapiens, U-937, Blood/lymph, PIK3CA WT", "result": 7.34, "unit": "µM"}, {"measurement": "Category", "setting": "JURKAT", "result": "Resistant (resistant (GI50>1.0 μM))"}, {"measurement": "GI50", "setting": "JURKAT; [3]", "result": 8.69, "unit": "µM"}, {"measurement": "Category", "setting": "5637", "result": "Resistant (resistant (GI50>1.0 μM))"}, {"measurement": "GI50", "setting": "5637; [4]", "result": 9.63, "unit": "µM"}, {"measurement": "Category", "setting": "OE33", "result": "Resistant (resistant (GI50>1.0 μM))"}, {"measurement": "GI50", "setting": "OE33; Homo sapiens, Esophagus, PIK3CA WT", "result": 9.86, "unit": "µM"}, {"measurement": "Category", "setting": "LS180", "result": "Resistant (resistant (GI50>1.0 μM))"}, {"measurement": "GI50", "setting": "LS180; Homo sapiens, Colon, PIK3CA MUT", "result": 9.94, "unit": "µM"}, {"measurement": "Category", "setting": "A549", "result": "Resistant (resistant (GI50>1.0 μM))"}, {"measurement": "GI50", "setting": "A549; Homo sapiens, Lung, PIK3CA WT", "result": 10.2, "unit": "µM"}, {"measurement": "Category", "setting": "H23", "result": "Resistant (resistant (GI50>1.0 μM))"}, {"measurement": "GI50", "setting": "H23; Homo sapiens, NCI-H23, Lung, PIK3CA WT", "result": 12.3, "unit": "µM"}, {"measurement": "Category", "setting": "SW620", "result": "Resistant (resistant (GI50>1.0 μM))"}, {"measurement": "GI50", "setting": "SW620; Homo sapiens, SW-620, Colon, PIK3CA WT", "result": 13.4, "unit": "µM"}, {"measurement": "Category", "setting": "CAPAN2", "result": "Resistant (resistant (GI50>1.0 μM))"}, {"measurement": "GI50", "setting": "CAPAN2; Homo sapiens, Capan-2, Pancreas, PIK3CA WT", "result": 13.4, "unit": "µM"}, {"measurement": "Category", "setting": "MCF7MDR+", "result": "Resistant (resistant (GI50>1.0 μM))"}, {"measurement": "GI50", "setting": "MCF7MDR+; [5]", "result": 14.5, "unit": "µM"}, {"measurement": "Category", "setting": "HCC1806", "result": "Resistant (resistant (GI50>1.0 μM))"}, {"measurement": "GI50", "setting": "HCC1806; [5]", "result": 16.7, "unit": "µM"}, {"measurement": "Category", "setting": "SNU16", "result": "Resistant (resistant (GI50>1.0 μM))"}, {"measurement": "GI50", "setting": "SNU16; Homo sapiens, SNU-16, Stomach, PIK3CA WT", "result": 16.8, "unit": "µM"}, {"measurement": "Category", "setting": "BT549", "result": "Resistant (resistant (GI50>1.0 μM))"}, {"measurement": "GI50", "setting": "BT549; Homo sapiens, BT-549, Breast, PIK3CA WT", "result": 17.4, "unit": "µM"}, {"measurement": "Category", "setting": "WSUDLCL2", "result": "Resistant (resistant (GI50>1.0 μM))"}, {"measurement": "GI50", "setting": "WSUDLCL2; [3]", "result": 17.7, "unit": "µM"}, {"measurement": "Category", "setting": "SKMES1", "result": "Resistant (resistant (GI50>1.0 μM))"}, {"measurement": "GI50", "setting": "SKMES1; Homo sapiens, SK-MES-1, Lung, PIK3CA WT", "result": 19.5, "unit": "µM"}, {"measurement": "Category", "setting": "MIAPACA2", "result": "Resistant (resistant (GI50>1.0 μM))"}, {"measurement": "GI50", "setting": "MIAPACA2; Homo sapiens, MIA PaCa-2, Pancreas, PIK3CA WT", "result": 24.2, "unit": "µM"}, {"measurement": "Category", "setting": "SNU739", "result": "Resistant (resistant (GI50>1.0 μM))"}, {"measurement": "GI50", "setting": "SNU739; Homo sapiens, SNU-739, Liver, PIK3CA WT", "result": 25.9, "unit": "µM"}, {"measurement": "Category", "setting": "ARH77", "result": "Resistant (resistant (GI50>1.0 μM))"}, {"measurement": "GI50", "setting": "ARH77; Homo sapiens, ARH-77, Blood/lymph, PIK3CA WT", "result": 30, "unit": "µM"}, {"measurement": "Category", "setting": "CAPAN1", "result": "Resistant (resistant (GI50>1.0 μM))"}, {"measurement": "GI50", "setting": "CAPAN1; Homo sapiens, CAPAN-1, Pancreas, PIK3CA WT", "result": 30, "unit": "µM"}, {"measurement": "Category", "setting": "JVM3", "result": "Resistant (resistant (GI50>1.0 μM))"}, {"measurement": "GI50", "setting": "JVM3; Homo sapiens, JVM-3, Blood/lymph, PIK3CA WT", "result": 30, "unit": "µM"}, {"measurement": "Category", "setting": "K562", "result": "Resistant (resistant (GI50>1.0 μM))"}, {"measurement": "GI50", "setting": "K562; [3]", "result": 30, "unit": "µM"}, {"measurement": "Category", "setting": "MDAMB436", "result": "Resistant (resistant (GI50>1.0 μM))"}, {"measurement": "GI50", "setting": "MDAMB436; Homo sapiens, MDA-MB-436, Breast, PIK3CA WT", "result": 30, "unit": "µM"}, {"measurement": "Category", "setting": "RAMOS", "result": "Resistant (resistant (GI50>1.0 μM))"}, {"measurement": "GI50", "setting": "RAMOS; [3]", "result": 30, "unit": "µM"}]}
